Key:
DLD-1 BRCA2−/− cells = assay: Homologous recombination synthetic lethal inhibition of proliferation, DLD-1 BRCA2-/- (Cell Titre Glo 3D); assay type: cell-based; conditions: mean; for IC50: Homo sapiens, DLD-1, DLD-1 BRCA2 −/−, read-out: POLQ PD Prolif Lumin BRCA2 −/− mean pIC50 (converted); for POLQ PD Prolif Lumin BRCA2 −/− mean pIC50: DLD-1 BRCA2 −/−
How it was run: (§1)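 Wild-type DLD-1 serves as the control for non-specific toxicity, and BRCA2-null DLD-1 as the homologous-recombination-deficient line. Both grew with compound from 10 μM down to 0.51 nM, re-dosed after 6 days. Luminescent ATP content (CellTiter-Glo 3D) was read after 7 or 12 days, respectively, to give IC50 values.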

DLD-1 cells = assay: Inhibition of proliferation, DLD-1 BRCA2 wt control (Cell Titre Glo 3D); assay type: cell-based; conditions: mean; for IC50: Homo sapiens, DLD-1, DLD1 BRCA2 wt, read-out: POLQ PD Prolif Lumin DLD1 mean pIC50 (converted); for POLQ PD Prolif Lumin DLD1 mean pIC50: DLD1 BRCA2 wt
How it was run: as §1

IC50 (DLD-1 cells) [nM] | POLQ PD Prolif Lumin DLD1 mean pIC50 (DLD-1 cells) | Compound | IC50 (DLD-1 BRCA2−/− cells) [nM] | POLQ PD Prolif Lumin BRCA2 −/− mean pIC50 (DLD-1 BRCA2−/− cells)
> 10000 | – | COc1ccc(F)cc1Cn1c(-c2cccc(OCCC(=O)O)c2Cl)nc2c(OC3(C)CC3)ncnc21 [Example U83, 3-(2-chloro-3-(9-(5-fluoro-2-methoxybenzyl)-6-(1-methylcyclopropoxy)-9H-purin-8-yl)phenoxy)propanoic acid] | 50.1 | –
– | <5.0 | CC1(Oc2ncnc3c2nc(-c2cccc(O[C@H]4C[C@@H](C(=O)O)C4)c2Cl)n3Cc2cc(Cl)ccc2C#N)CC1 [Example U84, (1s,3s)-3-(2-chloro-3-(9-(5-chloro-2-cyanobenzyl)-6-(1-methylcyclopropoxy)-9H-purin-8-yl)phenoxy)cyclobutane-1-carboxylic acid] | – | 7.3
> 10000 | – | C[C@@H](CCOc1ccc(-c2nc3c(OC4(C)CC4)ncnc3n2Cc2cccc(Cl)c2)c(Cl)c1)C(=O)NCC(=O)O [Example U86, (S)-(4-(3-chloro-4-(9-(3-chlorobenzyl)-6-(1-methylcyclopropoxy)-9H-purin-8-yl)phenoxy)-2-methylbutanoyl)glycine] | 2510 | –
> 10000 | – | C[C@@H](CCOc1cccc(-c2nc3c(OC4(C)CC4)ncnc3n2Cc2cc(Cl)ccc2C#N)c1Cl)C(=O)O [Example U87, (S)-4-(2-chloro-3-(9-(5-chloro-2-cyanobenzyl)-6-(1-methylcyclopropoxy)-9H-purin-8-yl)phenoxy)-2-methylbutanoic acid] | 15.8 | –
7940 | – | COc1ccc(C)cc1Cn1c(-c2cccc(OCCC(=O)O)c2Cl)nc2c(OC3(C)CC3)ncnc21 [Example U89, 3-(2-chloro-3-(9-(2-methoxy-5-methylbenzyl)-6-(1-methylcyclopropoxy)-9H-purin-8-yl)phenoxy)propanoic acid] | 15.8 | –
> 10000 | – | COc1ccc(Cl)cc1Cn1c(-c2cccc(OCCCOC(C)(C)C(=O)O)c2Cl)nc2c(OC3(C)CC3)ncnc21 [Example U90, 2-(3-(2-chloro-3-(9-(5-chloro-2-methoxybenzyl)-6-(1-methylcyclopropoxy)-9H-purin-8-yl)phenoxy)propoxy)-2-methylpropanoic acid] | 5.01 | –
– | <5.0 | COc1ccc(C)cc1Cn1c(-c2cccc(O[C@H]3CC[C@H](C(=O)O)CC3)c2Cl)nc2c(OC3(C)CC3)ncnc21 [Example U91, (1r,4r)-4-(2-chloro-3-(9-(2-methoxy-5-methylbenzyl)-6-(1-methylcyclopropoxy)-9H-purin-8-yl)phenoxy)cyclohexane-1-carboxylic acid] | – | 7.8
> 10000 | – | COc1ccc(C)cc1Cn1c(-c2cccc(OCCCOCC(=O)O)c2Cl)nc2c(OC3(C)CC3)ncnc21 [Example U93, 2-(3-(2-chloro-3-(9-(2-methoxy-5-methylbenzyl)-6-(1-methylcyclopropoxy)-9H-purin-8-yl)phenoxy)propoxy)acetic acid] | 12.6 | –
> 10000 | – | COc1ccc(C)cc1Cn1c(-c2ccc(OCC[C@H](C)C(=O)O)cc2Cl)nc2c(OC3(C)CC3)ncnc21 [Example U94, (S)-4-(3-chloro-4-(9-(2-methoxy-5-methylbenzyl)-6-(1-methylcyclopropoxy)-9H-purin-8-yl)phenoxy)-2-methylbutanoic acid] | 50.1 | –
> 10000 | – | C[C@H](CCOc1cccc(-c2nc3c(OC4(C)CC4)ncnc3n2Cc2cc(Cl)ccc2C#N)c1Cl)C(=O)O [Example U95, (R)-4-(2-chloro-3-(9-(5-chloro-2-cyanobenzyl)-6-(1-methylcyclopropoxy)-9H-purin-8-yl)phenoxy)-2-methylbutanoic acid] | 2 | –
> 10000 | – | CC1(Oc2ncnc3c2nc(-c2cccc(OCCC(=O)O)c2Cl)n3Cc2cc(Cl)ccc2C#N)CC1 [Example U96, 3-(2-chloro-3-(9-(5-chloro-2-cyanobenzyl)-6-(1-methylcyclopropoxy)-9H-purin-8-yl)phenoxy)propanoic acid] | 10 | –
> 10000 | – | CC1(Oc2ncnc3c2nc(-c2cccc(OCCCOCC(=O)O)c2Cl)n3Cc2cc(Cl)ccc2C#N)CC1 [Example U98, 2-(3-(2-chloro-3-(9-(5-chloro-2-cyanobenzyl)-6-(1-methylcyclopropoxy)-9H-purin-8-yl)phenoxy)propoxy)acetic acid] | 31.6 | –

From US20250195530A1, “POLQ INHIBITORS” (ASTRAZENECA AB, priority 2022, published 2025)
